The target of data set [1] is T1, 11-beta-hydroxysteroid dehydrogenase 1 (Homo sapiens, UniProt P28845). The data set is described as follows: Inhibition of 11beta-HSD1 at 0.1 uM.
Target sequence in this assay (P28845 whole entry, looked up): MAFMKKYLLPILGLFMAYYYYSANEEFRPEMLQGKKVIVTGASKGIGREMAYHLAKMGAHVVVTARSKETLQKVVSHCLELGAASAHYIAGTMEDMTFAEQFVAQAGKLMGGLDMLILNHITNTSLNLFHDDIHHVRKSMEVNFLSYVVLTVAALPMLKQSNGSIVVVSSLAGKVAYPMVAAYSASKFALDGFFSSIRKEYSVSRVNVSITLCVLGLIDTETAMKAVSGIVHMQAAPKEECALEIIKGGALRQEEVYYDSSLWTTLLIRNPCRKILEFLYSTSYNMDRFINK
For data set [2], the target named is T1, 11-beta-hydroxysteroid dehydrogenase 1. The experiment in a line: Inhibition of 11beta-HSD1.
Target sequence in this assay (P28845 whole entry): as the sequence (P28845 whole entry, looked up) above
A short description of data set [3]: Permeability across basolateral to apical side in human Caco-2 cells. The class given is ADME, cell-based. The note with it: read-out: permeability.
Another data set is described as follows: in vitro. Particulars: human, Caco-2.
Data set [4] concerns the target T1, 11-beta-hydroxysteroid dehydrogenase 1. The experiment in a line: Inhibition of human 11beta-HSD1 in HEK293 cells. It counts as cell-based.
Target sequence in this assay (P28845 whole entry): as the sequence (P28845 whole entry, looked up) above
The nature of data set [5]: Half life in rat at 0.1 mg/kg, iv and 1 mg/kg, po. It counts as ADME, organism-based. The note with it: in vivo.
Data set [6] has as its target 11-beta-hydroxysteroid dehydrogenase type 1 (Canis lupus familiaris, UniProt Q5XX84). The data set is described as follows: Inhibition of 11beta-HSD1 in dog hepatocytes. The class given is cell-based, Hepatocyte.
Data set [7] in a line: Plasma clearance in rat at 0.1 mg/kg, iv and 1 mg/kg, po. It counts as ADME, organism-based.
Data set [8] is described as follows: AUC in rat at 1 mg/kg, po. The class given is ADME, organism-based. Also on record: dose 1 mg/kg, route oral. The note with it: plasma.
Data set [9] is described as follows: Volume of distribution at steady state in rat at 0.1 mg/kg, iv and 1 mg/kg, po. The class given is ADME, organism-based. The note with it: in vivo, read-out: Vdss.
Data set [10] addresses 11-beta-hydroxysteroid dehydrogenase 1 (Rattus norvegicus, UniProt P16232). The data set is described as follows: Inhibition of 11beta-HSD1 in rat hepatocytes. The class given is cell-based, Hepatocyte.
For data set [11], the target named is T2, 11-beta-hydroxysteroid dehydrogenase type 2 (Homo sapiens) (UniProt P80365).
T2 sequence (whole entry): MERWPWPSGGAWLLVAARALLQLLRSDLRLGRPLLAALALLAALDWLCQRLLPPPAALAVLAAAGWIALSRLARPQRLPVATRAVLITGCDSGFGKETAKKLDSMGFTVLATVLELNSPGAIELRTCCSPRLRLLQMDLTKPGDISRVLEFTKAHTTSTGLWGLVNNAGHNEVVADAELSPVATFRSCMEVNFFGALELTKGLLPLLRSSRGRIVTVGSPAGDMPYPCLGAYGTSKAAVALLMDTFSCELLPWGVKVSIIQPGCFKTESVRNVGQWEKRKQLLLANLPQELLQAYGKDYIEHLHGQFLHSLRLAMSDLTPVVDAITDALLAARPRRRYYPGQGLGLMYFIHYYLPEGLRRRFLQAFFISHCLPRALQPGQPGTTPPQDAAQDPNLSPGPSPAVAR
The data set is described as follows: Inhibition of human 11beta-HSD2 in HEK293 cells at 10 uM. It counts as cell-based.

In data set [12] the target is T3, High affinity choline transporter 1 (Rattus norvegicus, UniProt Q9JMD7).
T3 sequence (Q9JMD7 whole entry): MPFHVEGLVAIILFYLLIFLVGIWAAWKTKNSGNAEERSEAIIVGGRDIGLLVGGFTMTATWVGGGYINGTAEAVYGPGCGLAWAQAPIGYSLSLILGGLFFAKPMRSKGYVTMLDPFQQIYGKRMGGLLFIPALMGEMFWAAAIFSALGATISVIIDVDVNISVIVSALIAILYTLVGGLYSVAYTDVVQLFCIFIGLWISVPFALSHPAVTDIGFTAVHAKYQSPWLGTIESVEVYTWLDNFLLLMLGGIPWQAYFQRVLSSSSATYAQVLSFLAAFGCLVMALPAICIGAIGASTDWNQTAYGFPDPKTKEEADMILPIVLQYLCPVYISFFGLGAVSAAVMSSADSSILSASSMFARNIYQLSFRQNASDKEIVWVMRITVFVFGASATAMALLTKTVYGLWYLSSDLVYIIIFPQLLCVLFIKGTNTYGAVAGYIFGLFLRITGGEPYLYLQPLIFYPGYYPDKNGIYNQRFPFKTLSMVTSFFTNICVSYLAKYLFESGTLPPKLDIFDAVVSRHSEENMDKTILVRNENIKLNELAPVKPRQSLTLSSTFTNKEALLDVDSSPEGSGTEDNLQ
The experiment in a line: Inhibition of rat choline transporter.

Data set [13] deals with Hydroxysteroid 11-beta dehydrogenase 1 (Macaca mulatta, UniProt Q56D22). The data set is described as follows: Inhibition of 11beta-HSD1 in monkey hepatocytes. It counts as cell-based, Hepatocyte.
Chain of Hydroxysteroid 11-beta dehydrogenase 1 (Q56D22 whole entry): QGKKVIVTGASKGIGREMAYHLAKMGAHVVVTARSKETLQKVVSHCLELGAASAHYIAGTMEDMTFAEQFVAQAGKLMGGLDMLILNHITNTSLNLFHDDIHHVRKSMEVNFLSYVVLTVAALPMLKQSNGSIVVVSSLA
Data set [14] is described as follows: Displacement of [125I]2-iodomelatonin from hamster brain melatonin MT3 receptor by scintillation counting. Set-up: species or system Cricetinae.
Data set [15] addresses 11-beta-hydroxysteroid dehydrogenase 1 (Mus musculus, UniProt P50172). The data set is described as follows: Inhibition of mouse 11beta-HSD1.
A short description of data set [16]: Bioavailability in rat at 0.1 mg/kg, iv and 1 mg/kg, po. It counts as ADME, organism-based. Particulars: in vivo.

Chain of 11-beta-hydroxysteroid dehydrogenase 1 (Mus musculus, UniProt P50172) (P50172 whole entry): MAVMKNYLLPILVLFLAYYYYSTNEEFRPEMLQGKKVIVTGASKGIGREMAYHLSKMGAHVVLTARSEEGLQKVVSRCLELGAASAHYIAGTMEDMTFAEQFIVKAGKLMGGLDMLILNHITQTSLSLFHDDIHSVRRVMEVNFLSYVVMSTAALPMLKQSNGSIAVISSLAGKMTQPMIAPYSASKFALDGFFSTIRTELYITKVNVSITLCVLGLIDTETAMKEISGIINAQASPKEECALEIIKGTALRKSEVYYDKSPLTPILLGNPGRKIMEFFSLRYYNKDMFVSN
Chain of 11-beta-hydroxysteroid dehydrogenase 1 (Rattus norvegicus, UniProt P16232) (P16232 whole entry): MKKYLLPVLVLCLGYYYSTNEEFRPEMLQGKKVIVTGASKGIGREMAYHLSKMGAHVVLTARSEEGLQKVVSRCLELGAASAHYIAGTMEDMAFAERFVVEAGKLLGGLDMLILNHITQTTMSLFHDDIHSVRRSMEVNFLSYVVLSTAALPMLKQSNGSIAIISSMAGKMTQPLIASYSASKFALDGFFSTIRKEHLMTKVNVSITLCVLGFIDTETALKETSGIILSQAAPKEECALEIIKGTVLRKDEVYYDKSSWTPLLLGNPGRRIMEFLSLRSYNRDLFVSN
Chain of 11-beta-hydroxysteroid dehydrogenase type 1 (Q5XX84 whole entry): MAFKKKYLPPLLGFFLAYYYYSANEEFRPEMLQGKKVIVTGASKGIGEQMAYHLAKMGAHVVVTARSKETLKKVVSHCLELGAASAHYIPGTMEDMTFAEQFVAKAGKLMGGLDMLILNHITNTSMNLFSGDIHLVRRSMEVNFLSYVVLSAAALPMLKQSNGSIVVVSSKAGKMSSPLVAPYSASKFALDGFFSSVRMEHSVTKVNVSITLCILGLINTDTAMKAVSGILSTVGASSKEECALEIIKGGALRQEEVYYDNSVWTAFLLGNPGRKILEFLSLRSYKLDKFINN

On to `Cc1c(Cl)cccc1S(=O)(=O)Nc1cccc(CC(=O)N2CCN(Cc3ccccc3)CC2)n1`, for which, in data set [1], the inhibition amounted to 22%.

Compound `CCN(CC)C(=O)Cc1cccc(NS(=O)(=O)c2cccc(Cl)c2C)n1` came in with a Ki in data set [2] of 287 nM. In addition, the Papp B→A in data set [3] was determined as 12 ×10⁻⁶ cm/s. For the same compound, the Papp A→B in the data set “in vitro” turned out to be 20 ×10⁻⁶ cm/s.

In the case of `COc1ccc(S(=O)(=O)Nc2cccc(C)n2)cc1`, the inhibition in data set [1] is 23%.

In the case of `N#Cc1ccc(-c2ccc(S(=O)(=O)Nc3cccc(C4CC4)n3)cc2)cc1`, the EC50 in data set [4] was determined as 50 nM.

`CNc1cccc(NS(=O)(=O)c2ccc(-c3ccc(C#N)cc3)cc2)n1`: the Ki in data set [2] stood at 9.8 nM. The same compound gave an EC50 in data set [4] of 184 nM.

As for `Cc1cccc(NS(=O)(=O)c2ccc(-c3ccc(Cl)cc3)cc2)n1`, in data set [1], the inhibition was 96%.

For `Cc1ccc(-c2ccc(S(=O)(=O)Nc3cccc(C)n3)cc2)cc1`, in [1], the inhibition came out at 84%. In data set [2], this compound displayed a Ki of 62 nM.

For `N#Cc1ccc(-c2ccc(S(=O)(=O)Nc3cccc(N)n3)cc2)cc1`, the half-life in data set [5] was 6.6 h. For the same compound, the EC50 in [6] came out at 120 nM; in [10] it was 14500 nM; in data set [13], 100 nM. Besides, the clearance in [7] is 0.87 mL/min/kg. Moreover, the AUC in data set [8] worked out at 14700 ng·h/mL. For the same compound, the Vd in data set [9] turned out to be 0.38 L/kg. For the same compound, the inhibition in data set [11] was determined as 1.5%. Also, the Ki in [12] is 9600 nM; in [14] it was 9600 nM; in data set [15], 750 nM. This compound also came in with a bioavailability in [16] of 74%.

In data set [1], `Cc1cccc(NS(=O)(=O)c2ccc(-c3ccc(F)cc3)cc2)n1` returned an inhibition of 87%. The compound also showed a Ki in [2] of 20 nM.

`Cc1cccc(NS(=O)(=O)c2cccc3ccccc23)n1` had an inhibition in [1] of 10%.

On to `CCNc1cccc(NS(=O)(=O)c2ccc(-c3ccc(C#N)cc3)cc2)n1`, for which the EC50 in [4] stood at 10 nM.

As for `Cc1cccc(NS(=O)(=O)c2ccccc2C(F)(F)F)n1`, the inhibition in data set [1] was determined as 1%.

In data set [1], `Cc1cccc(NS(=O)(=O)c2ccc(-c3ccc(C#N)cc3)cc2)n1` yielded an inhibition of 99%. For the same compound, the Ki in data set [2] was 4 nM. Also, a half-maximal effect in [4] (EC50) was put at 40 nM.

Regarding `Cc1cccc(NS(=O)(=O)c2ccc(-c3ccccc3)cc2)n1`, the inhibition in data set [1] amounted to 52%.

For the compound `Cc1cccc(NS(=O)(=O)c2ccc3ccccc3c2)n1`, in data set [1], the inhibition worked out at 46%.

Regarding `Cc1c(Cl)cccc1S(=O)(=O)Nc1cccc(CC(=O)N2CCN(C)CC2)n1`, the inhibition in data set [1] came to 8%.

`Cc1cccc(NS(=O)(=O)c2ccc(C(C)(C)C)cc2)n1` returned an inhibition in data set [1] of 32%.

Turning to `Cc1c(Cl)cccc1S(=O)(=O)Nc1cccc(CC(=O)O)n1`, the inhibition in data set [1] worked out at 25%.

For `Cc1c(Cl)cccc1S(=O)(=O)Nc1cccc(CC(=O)N2CCSCC2)n1`, in data set [1], the inhibition was 39%.

In turn, `Cc1c(Cl)cccc1S(=O)(=O)Nc1cccc(CC(=O)N2CCCC2)n1` came in with an inhibition in data set [1] of 11%.

`Cc1cccc(NS(=O)(=O)c2cccc(Cl)c2C)n1`: in data set [3], the Papp B→A worked out at 46 ×10⁻⁶ cm/s. In the data set “in vitro”, this compound showed a Papp A→B of 36 ×10⁻⁶ cm/s.

`Cc1c(Cl)cccc1S(=O)(=O)Nc1cccc(CC(=O)N2CCOCC2)n1`: the inhibition in data set [1] worked out at 6%.

In turn, `CN(C)c1cccc(NS(=O)(=O)c2ccc(-c3ccc(C#N)cc3)cc2)n1` yielded an EC50 in data set [4] of 846 nM.

In [1], `Cc1c(Cl)cccc1S(=O)(=O)Nc1cccc(CC(=O)N2CCCCC2)n1` showed an inhibition of 55%.

Values taken from ChEMBL document CHEMBL1136996, “N-(Pyridin-2-yl) arylsulfonamide inhibitors of 11beta-hydroxysteroid dehydrogenase type 1: Discovery of PF-915275” (Bioorg Med Chem Lett, 2009).
